Measured values from ChEMBL document CHEMBL1127989, “Structure-activity studies of synthetic FKBP ligands as peptidyl-prolyl isomerase inhibitors” (Bioorg Med Chem Lett, 1994).

Assay: Apparent inhibition constant against peptidyl prolyl isomerase; range=0.004-0.010
Conditions: read-out: Ki app

Ki	Structure (SMILES)
4 nM	CCC(C)(C)C(=O)C(=O)N1CCCC[C@@H]1C(=O)OC(CCc1ccccc1)c1ccc2ccccc2c1 (stereo partly specified)

Assay: Apparent inhibition constant against peptidyl prolyl isomerase; range=0.3-0.6
Conditions: read-out: Ki app

Ki	Structure (SMILES)
300 nM	CCC(C)(C)C(=O)C(=O)N1CCCC[C@H]1C(=O)OC(CCc1ccccc1)c1ccccc1 (stereo partly specified)

Assay: Apparent inhibition constant against peptidyl prolyl isomerase (Ki app)
Conditions: not given

Ki	Structure (SMILES)
20000 nM	O=C(C(=O)N1CCCCC1C(=O)N(CCCc1ccccc1)Cc1ccccc1)C1CCCCC1 (stereo unspecified)
60000 nM	O=C(C(=O)N1CCCC[C@@H]1C(=O)NC(CO)Cc1ccccc1)C1CCCCC1 (stereo partly specified)
1900 nM	CCOC(=O)C(CCc1ccccc1)NC(=O)[C@H]1CCCCN1C(=O)C(=O)C1CCCCC1 (stereo partly specified)
3000 nM	O=C(C(=O)N1CCCCC1C(=O)NCCc1ccccc1)C1CCCCC1 (stereo unspecified)

Same assay, conditions: read-out: Ki app

Ki	Structure (SMILES)
7000 nM	CCOC(=O)C1CCCCN1C(=O)C(=O)C1(O)CCCCO1 (stereo unspecified)

Assay: Inhibition constant against peptidyl prolyl isomerase
Conditions: read-out: Ki app

Structure (SMILES)	Ki
C=CCN(CC(=O)OCC)C(=O)C(=O)C1(OC)CCCCC1	260000 nM
CCOC(=O)CN(C)C(=O)C(=O)C1(OC)CCCCC1	23000 nM
CCOC(=O)[C@@H]1CCCN1C(=O)C(=O)C1(OC)CCCCC1	8000 nM
CCOC(=O)C1CCCCN1C(=O)C(C)=O (stereo unspecified)	170000 nM
O=C(C(=O)N1CCCCC1C(=O)NCCCc1ccccc1)C1CCCCC1 (stereo unspecified)	1000 nM
CCC(C)(C)C(=O)C(=O)N1CCCCC1C(=O)OCCCc1c[nH]c2ccccc12 (stereo unspecified)	23 nM
CCOC(=O)C1CCCCN1C(=O)C(=O)C(C)(C)C (stereo unspecified)	2000 nM
CCOC(=O)C1CCCCN1C(=O)C(=O)C1(O)CCCCC1 (stereo unspecified)	1600 nM
CCC(C)(C)C(=O)C(=O)N1CCCCC1C(=O)OCCCc1cccnc1 (stereo unspecified)	165 nM
CCC(C)(C)C(=O)C(=O)N1CCCCC1C(=O)OCCCc1ccccc1OC (stereo unspecified)	60 nM
CCOC(=O)C1CCCCN1C(=O)C(=O)Cc1ccccc1 (stereo unspecified)	9000 nM
O=C(C(=O)N1CCCCC1C(=O)OCc1ccccc1)C1CCCCC1 (stereo unspecified)	400 nM
CCC(C)(C)C(=O)C(=O)N1CCCCC1C(=O)OCc1cccc2ccccc12 (stereo unspecified)	250 nM
CCOC(=O)C1CCCCN1C(=S)C(=O)CC(C)C (stereo unspecified)	4300 nM
CCC(C)(C)C(=O)C(=O)N1CCCCC1C(=O)OCCc1c[nH]c2ccccc12 (stereo unspecified)	330 nM
COC1(C(=O)C(=O)N2CCCCC2)CCCCO1 (stereo unspecified)	160000 nM
CC(C)(CCC1CCCCC1)OC(=O)C1CCCCN1C(=O)C(=O)C1CCCCC1 (stereo unspecified)	200 nM
CCC(C)(C)C(=O)C(=O)N1CCCCC1C(=O)OC/C=C/c1ccc(OC)c(OC)c1 (stereo unspecified)	35 nM
CCOC(=O)C1CCCCN1C(=O)C(=O)c1ccccc1 (stereo unspecified)	8000 nM
CCC(C)(C)C(O)C(=O)N1CCCC[C@H]1C(=O)OCCCc1ccccc1 (stereo partly specified)	2300 nM
CCC(C)(C)C(=O)C(=O)N1CCCCC1C(=O)OCCCc1cc(OC)c(OC)c(OC)c1 (stereo unspecified)	12 nM
CCC(C)(C)C(=O)C(=O)N1CCCCC1C(=O)OCCC(c1ccccc1)c1ccccc1 (stereo unspecified)	27 nM
CCOC(=O)[C@H]1CCCCN1C(=O)C(=O)C1(OC)CCCCC1	22000 nM
CCOC(=O)[C@H]1CCCN1C(=O)C(=O)C1(OC)CCCCC1	600000 nM
CCC(C)(C)C(=O)C(=O)N1CCCC[C@H]1C(=O)OC(CCc1ccccc1)C1CCCCC1 (stereo partly specified)	300 nM
COc1cc(CC[C@@H](OC(=O)[C@@H]2CCCCN2C(=O)CC(C)(C)C)c2ccccc2)cc(OC)c1OC	200 nM
CCOC(=O)C1CCCCN1C(=O)C(=O)C1(OC)CCCCO1 (stereo unspecified)	4000 nM
CCOC(=O)C1CCCCN1C(=O)C(=O)C(C)(C)CC (stereo unspecified)	660 nM
O=CC1CCCCN1C(=O)C(=O)C1CCCCC1 (stereo in doubt; 35)	250 nM
O=CC1CCCCN1C(=O)C(=O)C1CCCCC1 (stereo in doubt; 59)	20 nM

Further lines, results first:

Ki	Structure (SMILES)
300 nM	C/C(=C\c1ccccc1)COC(=O)C1CCCCN1C(=O)C(=O)C1CCCCC1 (stereo unspecified)
30000 nM	CCCC(=O)C1CCCCN1C(=O)C(=O)C(C)(C)CC (stereo unspecified)
186 nM	CCC(C)(C)C(=O)C(=O)N1CCCCC1C(=O)OCCCC1CCCCC1 (stereo unspecified)
340 nM	CCC(C)(C)C(=O)C(=O)N1CCCCC1C(=O)OCCc1ccccc1 (stereo unspecified)
9 nM	CCC(C)(C)C(=O)C(=O)N1CCCC[C@@H]1C(=O)OC(CCc1ccc2c(c1)OCO2)c1ccccc1 (stereo partly specified)
9 nM	CCC(C)(C)C(=O)C(=O)N1CCCC[C@@H]1C(=O)OC(CCc1cc(OC)c(OC)c(OC)c1)c1ccccc1 (stereo partly specified)
250 nM	C=CC(C)(C)C(CCc1ccccc1)OC(=O)[C@H]1CCCCN1C(=O)C(=O)C(C)(C)CC (stereo partly specified)
180000 nM	CCOC(=O)C1CCCN(C(=O)C(=O)C2(OC)CCCCO2)C1 (stereo unspecified)
100 nM	CCC(C)(C)C(=O)C(=O)N1CCCCC1C(=O)OCCCCc1ccccc1 (stereo unspecified)
50000 nM	CCOC(=O)C1CCCCN1C(=O)C(=O)CC (stereo unspecified)
410 nM	CCC(C)(C)C(=O)C(=O)N1CCCCC1C(=O)OCC(C)(C)C (stereo unspecified)
20000 nM	CCOC(=O)C1CCCCN1C(=O)C(=O)C1=CCCCO1 (stereo unspecified)
230 nM	COc1cc(CCCOC(=O)[C@@H]2CCCCN2S(=O)(=O)Cc2ccccc2)cc(OC)c1OC
7 nM	CCC(C)(C)C(=O)C(=O)N1CCCC[C@@H]1C(=O)OC(CCc1ccccc1)C1CCCCC1 (stereo partly specified)
33000 nM	CCOC(=O)C1CCCCN1C(=O)C(=O)N1CCCCC1 (stereo unspecified)
10 nM	CCC(C)(C)C(=O)C(=O)N1CCCC[C@@H]1C(=O)OC(CCC1CCCCC1)c1ccccc1 (stereo partly specified)
55 nM	CCC(C)(C)C(=O)C(=O)N1CCCCC1C(=O)OC(CCc1ccccc1)Cc1ccccc1 (stereo unspecified)

Ki	Structure (SMILES)
1000 nM	CCOC(=O)C1CCCCN1C(=O)C(=O)C(C)(C)COC(C)=O (stereo unspecified)
20 nM	CCC(C)(C)C(=O)C(=O)N1CCCCC1C(=O)OCCCc1ccc(OC)c(OC)c1 (stereo unspecified)
6000 nM	CCOC(=O)C1CCCCN1C(=O)C(=O)C(C)C (stereo unspecified)
730000 nM	CCOC(=O)C1CCCCN1NC(=O)C1CCCCC1 (stereo unspecified)
2000 nM	CCOC(=O)C1CCCCN1C(=O)C(=O)CC(C)C (stereo unspecified)
70 nM	CCC(C)(C)C(=O)C(=O)N1CCCCC1C(=O)OCCCc1ccc(OC)cc1 (stereo unspecified)
1000 nM	CCOC(=O)C1CCCCN1C(=O)C(=O)C1(OC)CCCCC1 (stereo unspecified)
16000 nM	O=C(C(=O)N1CCCC[C@H]1C(=O)OC(CCC1CCCCC1)c1ccccc1)C1CCCCC1 (stereo partly specified)
2000 nM	CCOC(=O)C1CCCCN1C(=O)C(=O)C1CCCCC1 (stereo unspecified)
160 nM	O=C(O[C@H](CCc1ccccc1)c1ccccc1)[C@@H]1CCCCN1S(=O)(=O)Cc1ccccc1
200 nM	CCC(C)(C)C(=O)C(=O)N1CCCCC1C(=O)OCc1ccc2ccccc2c1 (stereo unspecified)
60 nM	CCC(C)(C)C(=O)C(=O)N1CCCCC1C(=O)OCCCc1ccc(OCc2ccccc2)cc1 (stereo unspecified)
95 nM	CCC(C)(C)C(=O)C(=O)N1CCCCC1C(=O)OCCCc1ccc(O)cc1 (stereo unspecified)
110 nM	CCC(C)(C)C(=O)C(=O)N1CCCCC1C(=O)OCCCc1ccccc1 (stereo unspecified)
200 nM	O=CC1CCCCN1C(=O)C(=O)C1CCCCC1 (stereo in doubt; 44)
1000 nM	CO[C@H]1C[C@@H]2CC[C@@H](C)[C@@](O)(O2)C(=O)C(=O)N2CCCC[C@H]2C(=O)O[C@H]([C@H](C)C[C@@H]2CC[C@@H](O)[C@H](OC)C2)CC(=O)[C@H](C)/C=C(\C)[C@@H](O)[C@@H](OC)C(=O)[C@H](C)C[C@H](C)/C=C/C=C/C=C/1C [SIROLIMUS]

Assay: Apparent inhibition constant against peptidyl prolyl isomerase; range = 0.002-0.006
Conditions: read-out: Ki app

Ki	Structure (SMILES)
2 nM	CCC(C)(C)C(=O)C(=O)N1CCCC[C@@H]1C(=O)OC(CCc1ccc(OC)c(OC)c1)c1ccccc1 (stereo partly specified)
